The subject of one assay is F508del CFTR. The assay can be described thus: CFTR AlphaLISA, F508del-CFBE cells. The format is cell-based. To be noted: CFTR protein. The text has this: A cystic fibrosis bronchial epithelial cell line (CFBE410-) stably expressing either F508del-CFTR (CFBE F508del) or wild type CFTR (CFBE WT) under the control of a human cytomegalovirus (CMV) promoter was used. A CFBE410-cell line that lacks detectable CFTR endogenously was used as a control (CFBE parental).
In this assay, streptavidin-coated donor beads are coated with a biotinylated antibody that recognizes the CFTR protein and acceptor beads are coated with a second antibody that recognizes the CFTR protein. The AlphaLISA® assay uses luminescent oxygen-channeling chemistry in which laser irradiation of donor beads at 680 nm causes chemiluminescent emission from the acceptor bead at 615 nm. Thus, when CFTR protein is present, both donor and acceptor beads bind the analyte. Their close proximity triggers a reaction that results in chemiluminescent emission at 615 nm from the acceptor bead. […]
The plate was read on a Perkin Elmer EnVision (or a similar instrument can be used) at 615 nm (AlphaLISA® Opti-384 program). […]

The subject of another assay is CFTR. The assay can be described thus: Western blot analysis of CFTR expression, HT-29 cells. The class given is cell-based. As for the experimental part:
Cells were washed with ice-cold phosphate-buffered saline (PBS) and lysed in Pierce™ immunoprecipitation (IP)-Lysis Buffer (Thermo Fisher Scientific Inc., Grand Island, N.Y.) containing protease inhibitor cocktail (cOmplete™ Mini Protease Inhibitor Cocktail tablets, Roche Diagnostics GmBH, Mannheim, Germany). The cells were incubated with lysis buffer for 30 minutes on ice and centrifuged for 30 minutes at 13,000 rpm. Supernatant was collected and protein concentration was assayed by Pierce™ BCA Protein Assay Kit (Thermo Fisher Scientific). The cell lysates were loaded on a NuPAGE 3%-8% Tris-Acetate Gel (Thermo Fisher Scientific), and transferred onto a nitrocellulose membrane (Trans-Blot® Turbo™ Mini Nitrocellulose Transfer Packs, Bio-Rad, Hercules, Calif.). The membrane was blocked in tris-buffered saline with Tween-20 (TBST) and 5% milk and probed with mouse CFTR antibody (UNC596, 1:500 dilution) at 4° C. with gentle shaking overnight. Next day, membrane was washed three times with (TBST). Then, the membrane was incubated for 2 hours with anti-mouse IgG, horseradish peroxidase (HRP)-linked antibody (Cell Signaling Technology, Beverly, Mass.) at 1:2000 dilution. […]
(A western blot detects proteins with antibodies after separation by electrophoresis.)

As to `O=C(NCCCn1nncc1CO)c1cc(-c2ccccc2)on1` [PTI-CH], the “Fold change (PTI-CH/DMSO)” value in the assay with F508del CFTR is listed as 4.9 ± 0.53. The “fold changes in CFTR expression” value in the assay on CFTR was found to be 1.4 ×.

For the origin of these results see patent publication US20200340984A1, “METHODS OF QUANTIFYING CFTR PROTEIN EXPRESSION” (Proteostasis Therapeutics, Inc., priority 2017, published 2020).
